Source: patent US20160237160A1, “ANTI-TWEAKR ANTIBODIES AND USES THEREOF” (BAYER PHARMA AKTIENGESELLSCHAFT, priority 2013, published 2016)

Columns and labels:
Assay in all cases: Xenograft anti-tumor efficacy
Type in all cases: in vivo, mice
[1] = system: CXF1103 patient-derived colorectal cancer model; settings: tumor weight, TPP-2090 10 mg/kg twice weekly for 4 weeks
Experimental: (§1) After tumor growth to a size of approximately 40 mm^2 mice were randomized into control and treatment groups with a respective group size of n=8-10. Mice were treated with various doses of anti-TWEAKR antibodies diluted in PBS by intravenous injection (i.v.) into the tail vein with a twice per week schedule (q4dx3: applications twice per week, three applications in total; q4dx8: applications twice per week, eight applications in total). Combination therapy partners such as Regorafenib (10 mg/kg daily, per os) and the PI3K-inhibitor 1 (10 mg/kg, BID, 2d on, 5d off (applications twice daily on two consecutive days, followed by five days without treatment), i.v.) were diluted in their respective formulations whereas the standard of care therapies Irinotecan (5 mg/kg, 4d on, 3d off (applications once daily on four consecutive days followed by three days without treatment) i.v.) and Paclitaxel (16 mg/kg, q7dx4 (applications once per week, four applications in total), i.v.) were diluted in 0.9% NaCl. Animals injected with PBS served as the control (vehicle) group. The applied volume of the compounds was 5 ml/kg body weight per mouse.
(§2) Tumor growth was monitored 2-3 times per week by caliper measurement (length×width in mm) as well as body weight (in g). At the end of study tumors were dissected, weighted and used for the calculation of tumor-to-control (T/C) ratios (mean tumor weight of treated animals divided by mean tumor weight of control/vehicle animals). […] 2×10^6 tumor cells in 100% Matrigel were s.c. inoculated in female nude mice. After 7d established tumors with a size of about 40 mm^2 were treated with 0.3 mg/kg, 1 mg/kg and 3 mg/kg of antibodies (i.v., q4dx3: applications twice per week, three applications in total).
(§3) Animal studies were conducted as described in example 8 for further human colorectal cancer tumor cell lines Colo205 and LoVo and for further human colorectal cancer patient-derived models Co7553, Co5896, Co5676, Co5841, CXF 1103 and CXF 533. […] The formulation of regorafenib is described in example 8.

[2] = system: Co5676 patient-derived colorectal cancer model; settings: tumor area, TPP-2090 10 mg/kg twice weekly for 4 weeks
Experimental: as §1, §2, §3

[3] = system: Co5841 patient-derived colorectal cancer model; settings: tumor weight, TPP-2090 10 mg/kg twice weekly for 4 weeks
Experimental: as §1, §2, §3

[4] = system: Colo205 xenograft (colorectal cancer); settings: tumor weight, TPP-2090 10 mg/kg twice weekly for 4 weeks
Experimental: as §1, §2, §3

[5] = system: LoVo xenograft (colorectal cancer); settings: tumor weight, TPP-2090 10 mg/kg twice weekly for 4 weeks
Experimental: as §1, §2, §3

[6] = system: Co7553 patient-derived colorectal cancer model; settings: tumor weight, TPP-2090 10 mg/kg twice weekly for 4 weeks
Source text: Tumor growth was monitored 2-3 times per week by caliper measurement (length×width in mm) as well as body weight (in g). […]

[7] = system: CXF533 patient-derived colorectal cancer model; settings: tumor weight, TPP-2090 10 mg/kg twice weekly for 4 weeks
Experimental: as §1, §2, §3

Structure (SMILES) | Final T/C [1] | Final T/C [2] | Final T/C [3] | Final T/C [4] | Final T/C [5] | Final T/C [6] | Final T/C [7]
CCc1c2c(nc3ccc(OC(=O)N4CCC(N5CCCCC5)CC4)cc13)-c1cc3c(c(=O)n1C2)COC(=O)[C@]3(O)CC [Irinotecan] | 0.66 | 0.37 | 0.17 | 0.47 | 0.52 | 0.11 | 
O=C1[O][Pt]2([NH][C@@H]3CCCC[C@H]3[NH]2)[O]C1=O [Oxaliplatin, oxaliplatin] | 1.29 |  | 0.81 | 0.89 | 0.76 | 0.78 | 1.08
O=c1[nH]cc(F)c(=O)[nH]1 [5-FU, 5-fluorouracil] | 0.97 | 0.45 | 0.48 |  |  |  | 0.28
